The text below walks through data of patent publication US5869500A, “Pyridone compounds useful in treating Alzheimer's disease” (Hoffmann-La Roche Inc., priority 1996, dated 1999).

Test [1] relates to Aβ production in HEK cells over-expressing mutated β-APP (SFAD). As to the kind of experiment: Aβ production inhibition, sandwich-ELISA in HEK cells, over-expressed mutated β-APP (SE-SFAD). Format: cell-based, human. The conditions noted are these: for IC50: based on the respective plateau of maximum inhibition; for Emax: read-out: SE-SFAD max. inhibition %. A digest of the protocol:
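HEK cells expressing recombinant human wild-type or mutated (SFAD) β-APP treated with compound for 24 to 48 hours at 37° C, 10% CO2. IC50 based on plateau of maximum inhibition.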
On the technique in general: In an ELISA, binding on a coated surface is turned into a signal by an enzyme label.

In test [2] the test system is Aβ production in HEK cells over-expressing Wild type β-APP. The test is described as follows: Aβ production inhibition, sandwich-ELISA in HEK cells which over-express Wild type β-APP (SE-WT). The test is classed as cell-based, human. The conditions noted are these: for Emax: HEK293, maximum inhibition plateau, read-out: SE-WT max. inhibition %. As to the method: The effect of test substances on the inhibition of Aβ-amyloid production can be measured in the supernatant of cell cultures of β-APP expressed cells using ELISA tests or other quantitative determination methods for β-APP degradation products. Typically, 8×10^5 cells (e.g. HEK cells, which express recombinant human β-APP variants) are plated out in each well of a culture dish having 24 wells in growth media such as e.g. OPTIMEM (Gibco) and the test compound is then added. After an incubation period of 24 to 48 hours at 37° C. in a 10% CO2 atmosphere the supernatant is removed from the cell cultures and the β-APP degradation products (e.g. Aβ or β-[…]) are determined with the aid of ELISA (or sandwich ELISA) analysis or by means of quantitative immunoprecipitation (after metabolic radiolabelling of the cell proteins). Typically, 300 μl of the cell supernatant are tested according to the state of the art for ELISA tests in culture dishes having 96 wells. In the case of sandwich ELISA for Aβ, the binding antibody can be directed against the first 16 amino acids of Aβ-peptide (e.g. 6E10 Senetek, Maryland Heights, Mo.) and the detection antibody can be directed against amino acids 17-40 or 17-42 of Aβ and carries a detection system such as e.g. peroxidase. A simple ELISA test with an antibody, e.g. 22C11 (Boehringer Mannheim), can be used as the test for […]; the second antibody can be an anti-(mouse) Ig having a detection system, such as e.g. peroxidase. The peroxidase reaction can be carried out e.g. using a TMB substrate (BioRAD) and the measurements can be carried out at 650 nm using an ELISA reading apparatus. […] SE-SFAD signifies the Aβ production inhibition measured using sandwich-ELISA in HEK cells, SFAD signifies over-expressed mutated β-APP, and SE-WT signifies the Aβ production inhibition measured using sandwich-ELISA in HEK cells which over-express Wild type β-APP. The IC50 values are based on the respective plateau of maximum inhibition.

[3] abbreviates: Homo sapiens, HEK293, HEK cells.
The mark [4] stands for this setting: Homo sapiens, HEK293, HEK cells, maximum inhibition plateau.
[5] abbreviates: Homo sapiens, HEK293, based on the respective plateau of maximum inhibition.

The IC50 is the midpoint of a concentration-inhibition curve. A lower IC50 goes with inhibition by little substance. Take “8-(2-Benzoylamino-phenyl)-7-oxo-8-p-tolyl-7H-thieno[2,3-a]-quinolizine-10- carboxylic acid (2-methoxy-ethyl)-phenyl-amide [Compound 152]”: the IC50 in test [1] (HEK cells) was found to be 1.4 µM; in test [2] (based on the respective plateau of maximum inhibition) it was 1.5 µM. In test [1] (HEK cells, maximum inhibition plateau), the “SE-SFAD max. inhibition %” value worked out at 100%. Further, the “SE-WT max. inhibition %” value in test [2] (maximum inhibition plateau) is listed as 50-90%.

On to `CCCOC1CN(C(=O)c2cc(-c3ccccc3)c(=O)n3ccc4ccsc4c23)C1` [Compound 1, 8-Phenyl-10-(3-propoxy-azetidin-1-carbonyl)-thieno[2,3-a]quinolizin-7-one], for which the half-inhibitory concentration (IC50) in test [1] (setting [3]) was 2 µM; in test [2] (setting [5]), 4 µM. Also, the Emax in test [1] (setting [4]) is 65%; in test [2] (Homo sapiens), 75%.

In the case of `O=C(OCCn1ccnc1)c1cc(-c2ccccc2)c(=O)n2ccc3ccsc3c12` [Compound 2, 2-Imidazol-1-yl-ethyl 7-oxo-8-phenyl-7H-thieno[2,3-a]quinolizine-10-carboxylate], the results for the 50% inhibitory concentration (IC50) in test [1] (setting [3]) and in test [2] (setting [5]) were 10 µM and 1.2 µM, respectively. The Emax in test [1] (setting [4]) is 50%; in test [2] (Homo sapiens), 70%.

For the molecule `O=C1CC[C@H](COC(=O)c2cc(-c3ccccc3)c(=O)n3ccc4ccsc4c23)N1` [Compound 3, 5-Oxo-pyrrolidin-2-(R)-yl-methyl 7-oxo-8-phenyl-7H-thieno[2,3-a]-quinolizine-10-carboxylate], the IC50 came to 9.5 µM in test [1] (setting [3]) and 1 µM in test [2] (setting [5]). For the same molecule, the Emax in test [1] (setting [4]) came to 30%; in test [2] (Homo sapiens), 60%.

`O=C1CC[C@@H](COC(=O)c2cc(-c3ccccc3)c(=O)n3ccc4ccsc4c23)N1` [Compound 4, 5-Oxo-pyrrolidin-2-(S)-yl-methyl 7-oxo-8-phenyl-7H-thieno[2,3-a]-quinolizine-10-carboxylate]: the IC50 in test [1] (setting [3]) is 10 µM; in test [2] (setting [5]) it was 5 µM. Moreover, the Emax in test [1] (setting [4]) and in test [2] (Homo sapiens) was 25% in each case.

For the molecule `O=C(OCCN1CCOC1=O)c1cc(-c2ccccc2)c(=O)n2ccc3ccsc3c12` [Compound 5, 2-(2-Oxo-oxazolidin-3-yl)-ethyl 7-oxo-8-phenyl-7H-thieno[2,3-a]-quinolizine-10-carboxylate], the 50% inhibitory concentration (IC50) in test [1] (setting [3]) amounted to 1 µM; in test [2] (setting [5]), 1.2 µM. Moreover, the Emax was found to be 25% in test [1] (setting [4]) and 60% in test [2] (Homo sapiens).

Regarding `O=C(OCc1ccccn1)c1cc(-c2ccccc2)c(=O)n2ccc3ccsc3c12` [Compound 6, Pyridin-2-yl-methyl 7-oxo-8-phenyl-7H-thieno[2,3-a]quinolizine-10-carboxylate], the half-maximal inhibitory concentration (IC50) in test [1] (setting [3]) turned out to be 3 µM; in test [2] (setting [5]), 0.6 µM. Also, the Emax came out at 50% in test [1] (setting [4]) and 75% in test [2] (Homo sapiens).

For the molecule `COCC1CC(OC)CN1C(=O)c1cc(-c2ccccc2)c(=O)n2ccc3ccsc3c12` (centres unmarked) [Compound 8, 10-(4-Methoxy-2-methoxymethyl-pyrrolidine-1-carbonyl)-8-phenylthieno[2,3-a]quinolizin-7-one], the figures for the IC50 in test [1] (setting [3]) and in test [2] (setting [5]) were 1 µM and 12 µM, respectively. Moreover, the Emax came out at 35% in test [1] (setting [4]) and 25% in test [2] (Homo sapiens).

For `CCOC1CCN(C(=O)c2cc(-c3ccccc3)c(=O)n3ccc4ccsc4c23)C1` (centres unmarked) [Compound 9, 10-(3-Ethoxy-pyrrolidine-1-carbonyl)-8-phenyl-thieno[2,3-a]quinolizin-7-one], the IC50 in test [1] (setting [3]) came to 5 µM; in test [2] (setting [5]), 40 µM. In addition, the values for the Emax in test [1] (setting [4]) and in test [2] (Homo sapiens) were 35% and 50%, respectively.

Regarding `CCCOC1CCN(C(=O)c2cc(-c3ccccc3)c(=O)n3ccc4ccsc4c23)C1` (centres unmarked) [Compound 10, 8-Phenyl-10-(3-propoxy-pyrrolidine-1-carbonyl)-thieno[2,3-a]-quinolizin-7-one], the IC50 in test [1] (setting [3]) was 6.6 µM; in test [2] (setting [5]), 7 µM. In addition, the Emax in test [1] (setting [4]) and in test [2] (Homo sapiens) was 50% in each case.

`O=C(c1cc(-c2ccccc2)c(=O)n2ccc3ccsc3c12)N1CCC[C@@H]1CI` [Compound 11, 10-(2-(R)-Iodomethyl-pyrrolidine-1-carbonyl)-8-phenyl-thieno[2,3-a]-quinolizin-7-one]: half-maximal inhibition in test [2] (setting [5]) (IC50) was put at 11 µM. In addition, the Emax in test [2] (Homo sapiens) is 100%.

Turning to `CC(=O)OC[C@H]1CCCN1C(=O)c1cc(-c2ccccc2)c(=O)n2ccc3ccsc3c12` [Compound 12, 1-(7-Oxo-8-phenyl-7H-thieno[2,3-a]quinolizine-10-carbonyl)-pyrrolidin-2-(R)-yl-methyl acetate], in test [2] (setting [5]), the IC50 worked out at 1 µM. Moreover, the Emax in test [2] (Homo sapiens) was 50%.

For the molecule `COC1CCN(C(=O)c2cc(-c3ccccc3)c(=O)n3ccc4ccsc4c23)CC1` [Compound 13, 10-(4-Methoxy-piperidine-1-carbonyl)-8-phenyl-thieno[2,3-a]-quinolizin-7-one], the IC50 in test [1] (setting [3]) turned out to be 5 µM; in test [2] (setting [5]), 4 µM. The Emax was 30% in test [1] (setting [4]) and 80% in test [2] (Homo sapiens).

Take `COC1CCCN(C(=O)c2cc(-c3ccccc3)c(=O)n3ccc4ccsc4c23)C1` (centres unmarked) [Compound 14, 10-(3-Methoxy-piperidine-1-carbonyl)-8-phenyl-thieno[2,3-a]-quinolizine-7-on]: the IC50 in test [1] (setting [3]) is 2.3 µM; in test [2] (setting [5]) it was 8 µM. Also, the Emax in test [1] (setting [4]) was 50%; in test [2] (Homo sapiens) it was 70%.

`CCOC(=O)CN1CCN(C(=O)c2cc(-c3ccccc3)c(=O)n3ccc4ccsc4c23)CC1` [Compound 16, Ethyl [4-(7-oxo-8-phenyl-7H-thieno[2,3-a]quinolizine-10-carbonyl)-piperazin-1-yl]-acetate methanesulphonate]: the half-inhibitory concentration (IC50) was 3 µM in test [1] (setting [3]) and 6 µM in test [2] (setting [5]). In addition, the Emax in test [1] (setting [4]) amounted to 30%; in test [2] (Homo sapiens) it was 70%.

On to `COCCCN(C)C(=O)c1cc(-c2ccccc2)c(=O)n2ccc3ccsc3c12` [Compound 18, 7-Oxo-8-phenyl-7H-thieno[2,3-a]quinolizine-10-carboxylic acid (3-methoxy-propyl)-methyl-amide], for which the IC50 amounted to 4 µM in test [1] (setting [3]) and 7 µM in test [2] (setting [5]). Moreover, the results for the Emax in test [1] (setting [4]) and in test [2] (Homo sapiens) were 30% and 40%, respectively.

For `COCCN(C)C(=O)c1cc(-c2ccccc2)c(=O)n2ccc3ccsc3c12` [Compound 19, 7-Oxo-8-phenyl-7H-thieno[2,3-a]quinolizine-10-carboxylic acid (2-methoxy-ethyl)-methyl-amide], the IC50 in test [2] (setting [5]) turned out to be 20 µM. The Emax in test [2] (Homo sapiens) worked out at 100%.

For `CCN(CCOC)C(=O)c1cc(-c2ccccc2)c(=O)n2ccc3ccsc3c12` [Compound 20, 7-Oxo-8-phenyl-7H-thieno[2,3-a]quinolizine-10-carboxylic acid (2-methoxy-ethyl)-ethyl-amide], the IC50 in test [1] (setting [3]) came to 15 µM; in test [2] (setting [5]), 9 µM. The Emax came to 30% in test [1] (setting [4]) and 70% in test [2] (Homo sapiens).

As for `CCN(CCO)C(=O)c1cc(-c2ccccc2)c(=O)n2ccc3ccsc3c12` [Compound 21, 7-Oxo-8-phenyl-7H-thieno[2,3-a]quinolizine-10-carboxylic acid (2-hydroxy-ethyl)-ethyl-amide], half-maximal inhibition in test [2] (setting [5]) (IC50) required 40 µM. The Emax in test [2] (Homo sapiens) was found to be 100%.

Regarding `COCCN(CCOC)C(=O)c1cc(-c2ccccc2)c(=O)n2ccc3ccsc3c12` [Compound 22, 7-Oxo-8-phenyl-7H-thieno[2,3-a]quinolizine-10-carboxylic acid bis-(2-methoxy-ethyl)-amide], the IC50 in test [1] (setting [3]) is 2 µM; in test [2] (setting [5]) it was 2.5 µM. Besides, the Emax in test [1] (setting [4]) and in test [2] (Homo sapiens) was 80% in each case.

`COCCN(CCOC)C(=O)c1cc(-c2ccc(C)cc2)c(=O)n2ccc3ccsc3c12` [Compound 150, 7--Oxo-8-p-tolyl-7H-thieno[2,3-a]quinolizine-10-carboxylic acid bis-(2-methoxy-ethyl)-amide] registered an IC50 in test [1] (setting [3]) of 2.7 µM. For the same molecule, the Emax in test [1] (setting [4]) turned out to be 100%.

The molecule `CCOC(=O)c1cc(-c2ccc(C)cc2)c(=O)n2ccc3ccsc3c12` [Compound 151, Ethyl 7-oxo-8-p-tolyl-7H-thieno[2,3-a]quinolizine-10-carboxylate] returned an IC50 in test [1] (setting [3]) of 0.8 µM. Moreover, the Emax in test [1] (setting [4]) worked out at 100%.

For `COCCN(C(=O)c1cc(-c2ccccc2N)c(=O)n2ccc3ccsc3c12)c1ccccc1` [Compound 153, 8-(2-Amino-phenyl)-7-oxo-7H-thieno[2,3-a]chinolizine-10-carboxylic acid (2-methoxy-ethyl)-phenyl-amide], the Emax in test [1] (setting [4]) is 20 to 40%.
